Several values for one entry are separate records, joined by “and”; a condition that tells them apart may be missing. Equal entries are not always repeated.
Test system: subcutaneous SW1222 xenografts (A33 antigen-expressing human colorectal carcinoma)
Assay: Pretargeted biodistribution with huA33-TCO and ^64Cu-tetrazine radioligand
Type: in vivo, athymic nude mice
Method: Female athymic nude mice bearing subcutaneous SW1222 (right shoulder) xenografts (100-150 mm^3, 18-21 days post-inoculation) were administered 100 μg (0.66 nmol) huA33-TCO (in 200 μL 0.9% sterile saline) via intravenous tail vein injection. […] The specific activity of the radiotracer was adjusted using cold ^natCu-Tz-SarAr such that the molar ratio of Tzinjected:huA^33injected=1:1. Animals (n=4 per group) were euthanized by CO2(g) asphyxiation at 1, 4, 12, and 24 h after injection. After asphyxiation, 13 tissues were removed, rinsed in water, dried in air for 5 min, weighed, and counted in a gamma counter calibrated for ^64Cu. Counts were converted into activity using a calibration curve generated from known standards. Count data were background- and decay-corrected to the time of injection, and the percent injected dose per gram (% ID/g) for each tissue sample was calculated by normalization to the total activity injected. Contents within the stomach, small intestine, and large intestine were not removed for the measurements.
Contents within the stomach, small intestine, and large intestine were not removed for the measurements. […] Zeglis, B. M. et al. “A pretargeted PET imaging strategy based on bioorthogonal Diels-Alder click chemistry.” Journal of Nuclear Medicine. 54, 1389-1396 (2013). ©2013 by the Society of Nuclear Medicine and Molecular Imaging, Inc.
Zeglis, B. M. et al. “A pretargeted PET imaging strategy based on bioorthogonal Diels-Alder click chemistry.” Journal of Nuclear Medicine. 54, 1389-1396 (2013). ©2013 by the Society of Nuclear Medicine and Molecular Imaging, Inc.
(§1) Female athymic nude mice bearing subcutaneous SW1222 (right shoulder) xenografts (100-150 mm^3, 18-21 days post-inoculation) were administered 100 μg (0.66 nmol) huA33-TCO (in 200 μL 0.9% sterile saline) via intravenous tail vein injection. After an accumulation interval of 48 h, the same mice were then administered ^64Cu-Tz-SarAr (300-350 μCi in 200 μL 0.9% sterile saline) via intravenous tail vein injection (t=0). The specific activity of the radiotracer was adjusted using cold ^natCu-Tz-SarAr such that the molar ratio of Tzinjected:huA^33injected=1:1. Animals (n=4 per group) were euthanized by CO2(g) asphyxiation at 1, 4, 12, and 24 h after injection. After asphyxiation, tissues were removed, rinsed in water, dried in air for 5 min, weighed, and counted in a gamma counter calibrated for ^64Cu. Counts were converted into activity using a calibration curve generated from known standards. Count data were background- and decay-corrected to the time of injection, and the percent injected dose per gram (% ID/g) for each tissue sample was calculated by normalization to the total activity injected. Contents within the stomach, small intestine, and large intestine were not removed for the measurements.
as §1, with “120” for “48”, “Contents within the stomach, small intestine, and large intestine were not removed for the measurements.” left out

[1] = 48 h accumulation interval, 12 h p.i.
[2] = 48 h accumulation interval, 24 h p.i.
[3] = 120 h accumulation interval, 1 h p.i.
[4] = 120 h accumulation interval, 4 h p.i.
[5] = 120 h accumulation interval, 12 h p.i.
[6] = 120 h accumulation interval, 24 h p.i.

NC12CNCCNCC(NCc3ccc(CNC(=O)CCCC(=O)NCc4ccc(-c5nncnn5)cc4)cc3)(CNCCNC1)CNCCNC2.[64Cu+2] [^64Cu-Tz-SarAr]
Blood activity concentration [1]: 1.81 ± 0.54 % ID/g | Bone activity concentration [1]: 0.3 ± 0.07 % ID/g | Heart activity concentration [1]: 0.88 ± 0.33 % ID/g | Kidney activity concentration [1]: 2.04 ± 0.36 % ID/g | Large Intestine activity concentration [1]: 0.22 ± 0.08 % ID/g | Liver activity concentration [1]: 1.08 ± 0.32 % ID/g | Lung activity concentration [1]: 1.00 ± 0.18 % ID/g | Muscle activity concentration [1]: 0.15 ± 0.02 % ID/g | Small Intestine activity concentration [1]: 0.3 ± 0.08 % ID/g | Spleen activity concentration [1]: 0.56 ± 0.11 % ID/g | Stomach activity concentration [1]: 0.12 ± 0.04 % ID/g | Tumor activity concentration [1]: 4.94 ± 1.12 % ID/g | Tumor/Blood activity concentration ratio [1]: 2.72 ± 1.03 | Tumor/Bone activity concentration ratio [1]: 16.24 ± 5.16 | Tumor/Heart activity concentration ratio [1]: 5.62 ± 2.47 | Tumor/Kidney activity concentration ratio [1]: 2.42 ± 0.7 | Tumor/Large Intestine activity concentration ratio [1]: 22.66 ± 10.19 | Tumor/Liver activity concentration ratio [1]: 4.58 ± 1.69 | Tumor/Lung activity concentration ratio [1]: 4.94 ± 1.45 | Tumor/Muscle activity concentration ratio [1]: 33.88 ± 9.31 | Tumor/Small Intestine activity concentration ratio [1]: 16.47 ± 5.62 | Tumor/Spleen activity concentration ratio [1]: 8.75 ± 2.61 | Tumor/Stomach activity concentration ratio [1]: 41.88 ± 18.35 | Blood activity concentration [2]: 0.92 ± 0.31 % ID/g | Bone activity concentration [2]: 0.18 ± 0.05 % ID/g | Heart activity concentration [2]: 0.45 ± 0.08 % ID/g | Kidney activity concentration [2]: 1.47 ± 0.43 % ID/g | Large Intestine activity concentration [2]: 0.16 ± 0.03 % ID/g | Liver activity concentration [2]: 1.28 ± 0.33 % ID/g | Lung activity concentration [2]: 1.05 ± 0.51 % ID/g | Muscle activity concentration [2]: 0.11 ± 0.04 % ID/g | Small Intestine activity concentration [2]: 0.22 ± 0.07 % ID/g | Spleen activity concentration [2]: 0.5 ± 0.1 % ID/g | Stomach activity concentration [2]: 0.15 ± 0.03 % ID/g | Tumor activity concentration [2]: 4.85 ± 0.67 % ID/g | Tumor/Blood activity concentration ratio [2]: 5.27±1.92 | Tumor/Bone activity concentration ratio [2]: 26.55 ± 7.58 | Tumor/Heart activity concentration ratio [2]: 10.9 ± 2.55 | Tumor/Kidney activity concentration ratio [2]: 3.31 ± 1.07 | Tumor/Large Intestine activity concentration ratio [2]: 29.58 ± 6.11 | Tumor/Liver activity concentration ratio [2]: 3.8 ± 1.11 | Tumor/Lung activity concentration ratio [2]: 4.61 ± 2.32 | Tumor/Muscle activity concentration ratio [2]: 44.18 ± 17.61 | Tumor/Small Intestine activity concentration ratio [2]: 21.72 ± 7.59 | Tumor/Spleen activity concentration ratio [2]: 9.8 ± 2.47 | Tumor/Stomach activity concentration ratio [2]: 32.81 ± 8.37 | Blood activity concentration [3]: 1.39 ± 0.19 % ID/g | Bone activity concentration [3]: 0.21 ± 0.03 % ID/g | Heart activity concentration [3]: 0.52 ± 0.06 % ID/g | Kidney activity concentration [3]: 1.80 ± 0.12 % ID/g | Large Intestine activity concentration [3]: 0.29 ± 0.16 % ID/g | Liver activity concentration [3]: 1.65 ± 0.07 % ID/g | Lung activity concentration [3]: 1.41 ± 0.21 % ID/g | Muscle activity concentration [3]: 0.20 ± 0.03 % ID/g | Small Intestine activity concentration [3]: 0.34 ± 0.03 % ID/g | Spleen activity concentration [3]: 0.60 ± 0.13 % ID/g | Stomach activity concentration [3]: 0.32 ± 0.13 % ID/g | Tumor activity concentration [3]: 3.61 ± 0.45 % ID/g | Tumor/Blood activity concentration ratio [3]: 2.61 ± 0.48 | Tumor/Bone activity concentration ratio [3]: 17.27 ± 3.03 | Tumor/Heart activity concentration ratio [3]: 7.00 ± 1.22 | Tumor/Kidney activity concentration ratio [3]: 2.01 ± 0.29 | Tumor/Large Intestine activity concentration ratio [3]: 12.39 ± 7.14 | Tumor/Liver activity concentration ratio [3]: 2.19 ± 0.29 | Tumor/Lung activity concentration ratio [3]: 2.55 ± 0.49 | Tumor/Muscle activity concentration ratio [3]: 18.41 ± 3.47 | Tumor/Small Intestine activity concentration ratio [3]: 10.53 ± 1.58 | Tumor/Spleen activity concentration ratio [3]: 6.02 ± 1.46 | Tumor/Stomach activity concentration ratio [3]: 11.37 ± 4.88 | Blood activity concentration [4]: 1.05±0.29 % ID/g | Bone activity concentration [4]: 0.16 ± 0.04 % ID/g | Heart activity concentration [4]: 0.43 ± 0.11 % ID/g | Kidney activity concentration [4]: 2.10 ± 0.20 % ID/g | Large Intestine activity concentration [4]: 0.20 ± 0.13 % ID/g | Liver activity concentration [4]: 1.16 ± 0.39 % ID/g | Lung activity concentration [4]: 0.91 ± 0.22 % ID/g | Muscle activity concentration [4]: 0.11 ± 0.05 % ID/g | Small Intestine activity concentration [4]: 0.22 ± 0.03 % ID/g | Spleen activity concentration [4]: 0.50 ± 0.05 % ID/g | Stomach activity concentration [4]: 0.25 ± 0.12 % ID/g | Tumor activity concentration [4]: 3.6±0.7 % ID/g and 3.55 ± 0.74 % ID/g | Tumor/Blood activity concentration ratio [4]: 3.37 ± 1.16 | Tumor/Bone activity concentration ratio [4]: 21.53 ± 7.14 | Tumor/Heart activity concentration ratio [4]: 8.24 ± 2.71 | Tumor/Kidney activity concentration ratio [4]: 1.69 ± 0.39 | Tumor/Large Intestine activity concentration ratio [4]: 17.82 ± 12.22 | Tumor/Liver activity concentration ratio [4]: 3.06 ± 1.2 | Tumor/Lung activity concentration ratio [4]: 3.89 ± 1.23 | Tumor/Muscle activity concentration ratio [4]: 32.58 ± 16.17 | Tumor/Small Intestine activity concentration ratio [4]: 16.22 ± 3.91 | Tumor/Spleen activity concentration ratio [4]: 7.03 ± 1.64 | Tumor/Stomach activity concentration ratio [4]: 14.04 ± 7.07 | Blood activity concentration [5]: 0.44 ± 0.14 % ID/g | Bone activity concentration [5]: 0.11 ± 0.04 % ID/g | Heart activity concentration [5]: 0.34 ± 0.20 % ID/g | Kidney activity concentration [5]: 2.11 ± 0.13 % ID/g | Large Intestine activity concentration [5]: 0.09 ± 0.03 % ID/g | Liver activity concentration [5]: 0.96 ± 0.09 % ID/g | Lung activity concentration [5]: 0.59 ± 0.27 % ID/g | Muscle activity concentration [5]: 0.08 ± 0.04 % ID/g | Small Intestine activity concentration [5]: 0.15 ± 0.07 % ID/g | Spleen activity concentration [5]: 0.34 ± 0.14 % ID/g | Stomach activity concentration [5]: 0.09 ± 0.03 % ID/g | Tumor activity concentration [5]: 3.29 ± 0.40 % ID/g | Tumor/Blood activity concentration ratio [5]: 7.46 ± 2.54 | Tumor/Bone activity concentration ratio [5]: 29.07 ± 11.14 | Tumor/Heart activity concentration ratio [5]: 9.56 ± 5.64 | Tumor/Kidney activity concentration ratio [5]: 1.56 ± 0.21 | Tumor/Large Intestine activity concentration ratio [5]: 35.43 ± 12.17 | Tumor/Liver activity concentration ratio [5]: 3.43 ± 0.52 | Tumor/Lung activity concentration ratio [5]: 5.55 ± 2.62 | Tumor/Muscle activity concentration ratio [5]: 38.74 ± 20.11 | Tumor/Small Intestine activity concentration ratio [5]: 21.47 ± 9.60 | Tumor/Spleen activity concentration ratio [5]: 9.63 ± 4.03 | Tumor/Stomach activity concentration ratio [5]: 38.07 ± 12.42 | Blood activity concentration [6]: 0.75 ± 0.23 % ID/g | Bone activity concentration [6]: 0.25 ± 0.08 % ID/g | Heart activity concentration [6]: 0.40 ± 0.16 % ID/g | Kidney activity concentration [6]: 1.90 ± 0.17 % ID/g | Large Intestine activity concentration [6]: 0.16 ± 0.04 % ID/g | Liver activity concentration [6]: 1.06 ± 0.16 % ID/g | Lung activity concentration [6]: 0.85 ± 0.29 % ID/g | Muscle activity concentration [6]: 0.14 ± 0.05 % ID/g | Small Intestine activity concentration [6]: 0.17 ± 0.06 % ID/g | Spleen activity concentration [6]: 0.69 ± 0.17 % ID/g | Stomach activity concentration [6]: 0.15 ± 0.08 % ID/g | Tumor activity concentration [6]: 4.34 ± 0.98 % ID/g | Tumor/Blood activity concentration ratio [6]: 5.74±2.17 | Tumor/Bone activity concentration ratio [6]: 17.16 ± 6.90 | Tumor/Heart activity concentration ratio [6]: 10.76 ± 4.94 | Tumor/Kidney activity concentration ratio [6]: 2.29 ± 0.56 | Tumor/Large Intestine activity concentration ratio [6]: 26.48 ± 8.29 | Tumor/Liver activity concentration ratio [6]: 4.09 ± 1.13 | Tumor/Lung activity concentration ratio [6]: 5.09 ± 2.06 | Tumor/Muscle activity concentration ratio [6]: 30.39 ± 11.94 | Tumor/Small Intestine activity concentration ratio [6]: 25.34 ± 10.4 | Tumor/Spleen activity concentration ratio [6]: 6.26 ± 2.09 | Tumor/Stomach activity concentration ratio [6]: 29.21 ± 17.97

From US11135320B2, “Radioligands for pretargeted pet imaging and methods of their therapeutic use” (priority 2015, dated 2021)
